# Assay results from PMC12218921, “An adaptive peptide-binding site in ubiquitin receptor hRpn13 revealed by structural studies” (Nature Communications, 2025).
# How the values were obtained:
# [1] = molecular target: T1, hRpn13_ΔMTT (Homo sapiens, UniProt Q16186); test: 1H-15N HSQC NMR, K48-diUb constructs with hRpn13_ΔMTT; type: binding; details: for ubiquitin contact surface binding (HSQC): varying K48-diUb concentrations
# T1 construct: recombinant plasmid of hRpn13 Pru (1–150) cloned into the pRSET vector; GST (N, cleaved yes); residual Gly-Ser (^cG-^dS) left after cleavage; made in house; host or cells: Escherichia coli BL21 (DE3); pGEX-4T-1 plasmid synthesized by GenScript (Addgene 237412)
# T1 sequence (Q16186 4-150, stated change not applied): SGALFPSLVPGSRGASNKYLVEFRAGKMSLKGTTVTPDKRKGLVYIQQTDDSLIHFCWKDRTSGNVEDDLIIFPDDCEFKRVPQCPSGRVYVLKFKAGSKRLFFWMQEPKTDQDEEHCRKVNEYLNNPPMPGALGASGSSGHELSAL
# Procedure: To test further whether peptide binding can influence hRpn13 Pru interaction with ubiquitin, we generated K48-linked diubiquitin in which the distal moiety (linked via G76) is extended by a 6-residue linker sequence of GSGGSG followed by either the ENT (K48-diUb^ENT) or EDGEGEE (K48-diUb^EDGEGEE) sequence. Varying concentrations of K48-diUb^ENT, K48-diUb^EDGEGEE, or K48-diUb^D77 were added to 100 μM ^15N-labeled hRpn13_ΔMTT and effects on hRpn13 monitored by recording ^1H-^15N HSQC spectra.
# K48-diUb samples were produced by using a similar method as previously described. Briefly, Ub-D77 (proximal), Ub-ENT (proximal), Ub-EDGEGEE (proximal) and Ub-K48R (distal) were added at a final concentration of 0.8 mM to a reaction buffer (50 mM Tris pH 8.0, 5 mM MgCl2, 10 mM creatine phosphate, 0.6 U/mL inorg. PPase, 0.6 U/mL creatine kinase, 2 mM ATP) preincubated with 20 μM E2-25K. 0.1 μM E1 (R&D Systems) was added to this reaction system to initiate diUb synthesis, and it was left for 18 h at 37 °C. The reaction was quenched by dilution with 4 volumes of 50 mM sodium acetate (pH 4.5) and passed over a Mono S 5/50 GL column (GE Healthcare). Further purification was achieved by SEC on a HiLoad 16/600 Superdex 75 prep grade column (GE Healthcare) in buffer C.
# (§1) All ^1H-^15N HSQC experiments were acquired on samples dissolved in NMR buffer (20 mM sodium phosphate, pH 6.5, 50 mM NaCl, 1 mM TCEP, 10% D2O) unless specified, in which case 2 mM DTT replaced TCEP. The samples were purified in DTT-containing buffer and then exchanged into NMR buffer by using Zeba Protein Desalting columns (Thermo Fisher Scientific). The pH was measured and adjusted to 6.5. All NMR experiments were performed at 25 °C on a Bruker Advance 600 MHz spectrometer equipped with a cryogenically cooled probe. The data were processed by NMRpipe[46] (version 11.5) and spectra visualized and analyzed with NMR-FAM-SPARKY[47] (version 3.190) by using previous chemical shift assignments[12],[23] and NMRbox[48]. The amide nitrogen and hydrogen chemical shift perturbations (CSP) were mapped for each amino acid according to Eq. 1.1 CSP=0.2ΔδN2+ΔδH2
# Supplementary Figure 13: NMR experiments of hRpn13 Pru binding to K48-diUb^EDGEGEE, K48-diUb^ENT or K48-diUb^D77. a) ^1H-^15N HSQC spectrum of 0.1 mM ^15N-labeled hRpn13_ΔMTT alone (black) or with equimolar K48-diUb^EDGEGEE (blue), K48-diUb^ENT (red) or K48-diUb^D77 (green). Select residues are labeled. The spectra were acquired on a 600 MHz spectrometer equipped with a cryogenically cooled probe and at 25°C samples with samples dissolved in 20 mM sodium phosphate, pH 6.5, 100 mM NaCl, 1 mM TCEP, 10% D2O.
# [2] = molecular target: T1, hRpn13_ΔMTT; test: 1H-15N HSQC NMR titration / chemical shift perturbation (CSP), 0.1 mM 15N-labeled hRpn13_ΔMTT with unlabeled peptide; type: binding; details: 20-fold molar excess peptide
# Procedure: The similar spectral effects by adding ENT or ENT_M1S is readily apparent by quantifying and plotting the shifting across the Pru amino acid sequence (Supplementary Fig. 10b, c).
# as §1
# ΔδH, change in amide proton value (in parts per million); ΔδN, change in amide nitrogen value (in parts per million).
# Supplementary Figure 9: 2D NMR experiments indicate ENT binding to hRpn13 Pru. a) ^1H-^15N HSQC spectrum of 0.1 mM ^15N-labeled hRpn13 (1-150, black) or hRpn13_ΔMTT (green). Select residues are labeled with amino acids in the Pru helix, proteasome binding region, and termini in blue, purple, and orange, respectively. Arrows indicate direction of shifting. b, c) ^1H-^15N HSQC spectra of 0.1 mM of ^15N-labeled hRpn13_ΔMTT alone (black) or with ENT present at equimolar (red), 2-fold (orange), 5-fold (yellow), 10-fold (green), 15-fold (blue), or 20-fold (purple) molar excess. […] All spectra were acquired at 600 MHz and 25°C in 20 mM sodium phosphate, pH 6.5, 100 mM NaCl, 1 mM TCEP, 10% D2O. ppm, part per million.
substance,measurement,setting,value
K48-diUb^EDGEGEE: K48-linked diubiquitin extended by linker GSGGSG followed by EDGEGEE,bound state hRpn13 F76 signal,[1]; 100 μM 15N-hRpn13_ΔMTT,A bound state hRpn13 signal was only observed for K48-diUb^EDGEGEE
same,strength of complex with hRpn13 (HSQC),[1]; 100 μM 15N-hRpn13_ΔMTT,stronger complex with hRpn13 compared to K48-diUb^ENT or K48-diUb^D77
same,ubiquitin contact surface binding (HSQC),[1]; 100 μM 15N-hRpn13_ΔMTT,binding to ubiquitin was observed
same,"hRpn13 D78, A100, and G101 signal shifting compared to K48-diUb^D77",[1]; sub-stoichiometric K48-diUb concentrations,more pronounced shifting at sub-stoichiometric concentrations
K48-diUb^D77: K48-linked diubiquitin from Ub-D77 (proximal) and Ub-K48R (distal) [reference compound],ubiquitin contact surface binding (HSQC),[1]; 100 μM 15N-hRpn13_ΔMTT,binding to ubiquitin was observed
"GPGSSTT [ENT_M1S, ENT M1 replaced with serine]",CSP A6,[2],0.001673
same,CSP A28,[2],0.004472
same,CSP A100,[2],0.001095
same,CSP A136,[2],0.001
same,CSP A139,[2],0.001342
same,CSP A149,[2],0.001342
same,CSP C60,[2],0.004494
same,CSP C80,[2],0.0004472
same,CSP C88,[2],0.005727
same,CSP C121,[2],0.01167
same,CSP D41,[2],0.0008944
same,CSP D53,[2],0.002049
same,CSP D54,[2],0.003347
same,CSP D63,[2],0.004919
same,CSP D71,[2],0.004147
same,CSP D72,[2],0.004583
same,CSP D78,[2],0.00502
same,CSP D79,[2],0.004472
same,CSP D115,[2],0.005385
same,CSP D117,[2],0.02256
same,CSP E25,[2],0.004472
same,CSP E70,[2],0.002683
same,CSP E81,[2],0.003715
same,CSP E111,[2],0.01001
same,CSP E118,[2],0.03156
same,CSP E119,[2],0.0177
same,CSP E146,[2],0.005177
same,CSP F8,[2],0.0004472
same,CSP F26,[2],0.01613
same,CSP F59,[2],0.004583
same,CSP F76,[2],0.008012
same,CSP F82,[2],0.002683
same,CSP F98,[2],0.005459
same,CSP F106,[2],0.003715
same,CSP F107,[2],0.002049
same,CSP G5,[2],0
same,CSP G17,[2],0.002236
same,CSP G29,[2],0.0008944
same,CSP G45,[2],0.003715
same,CSP G67,[2],0.005899
same,CSP G91,[2],0.001673
same,CSP G101,[2],0.001789
same,CSP G135,[2],0.002049
same,CSP G138,[2],0.002049
same,CSP G141,[2],0.001789
same,CSP G144,[2],0.0008944
same,CSP H58,[2],0.00743
same,CSP H120,[2],0.04026
same,CSP H145,[2],0.04954
same,CSP I49,[2],0.003286
same,CSP I57,[2],0.003286
same,CSP I75,[2],0
same,CSP K21,[2],0.001095
same,CSP K30,[2],0.007668
same,CSP K34,[2],0.002049
same,CSP K42,[2],0.002191
same,CSP K62,[2],0.001789
same,CSP K83,[2],0.00634
same,CSP K97,[2],0.001
same,CSP K99,[2],0.002049
same,CSP K103,[2],0.001673
same,CSP K113,[2],0.004472
same,CSP K123,[2],0.00743
same,CSP L7,[2],0.001
same,CSP L11,[2],0.0008944
same,CSP L23,[2],0.001095
same,CSP L33,[2],0.002408
same,CSP L46,[2],0.002049
same,CSP L56,[2],0.004099
same,CSP L73,[2],0.002049
same,CSP L96,[2],0.0004472
same,CSP L105,[2],0.001095
same,CSP L128,[2],0.003131
same,CSP L137,[2],0.001673
same,CSP L147,[2],0.004494
same,CSP L150,[2],0.001673
same,CSP M31,[2],0
same,CSP M109,[2],0.003286
same,CSP M133,[2],0.002
same,CSP N20,[2],0
same,CSP N68,[2],0.001789
same,CSP N125,[2],0.003347
same,CSP N129,[2],0.003
same,CSP N130,[2],0.002683
same,CSP Q50,[2],0.001095
same,CSP Q51,[2],0.001
same,CSP Q87,[2],0.008295
same,CSP R16,[2],0
same,CSP R27,[2],0.008112
same,CSP R43,[2],0.0008944
same,CSP R64,[2],0.003
same,CSP R84,[2],0
same,CSP R92 backbone,[2],0.002449
same,CSP R92 sidechain,[2],0.01312
same,CSP R104,[2],0.004099
same,CSP R122,[2],0.006768
same,CSP S4,[2],0.003715
same,CSP S10,[2],0.001
same,CSP S15,[2],0.002236
same,CSP S19,[2],0.002049
same,CSP S32,[2],0.001095
same,CSP S55,[2],0.001342
same,CSP S66,[2],0.001
same,CSP S102,[2],0.001342
same,CSP S140,[2],0.001095
same,CSP S142,[2],0.001342
same,CSP S143,[2],0.002049
same,CSP S148,[2],0.0004472
same,CSP T36,[2],0.001342
same,CSP T37,[2],0.002191
same,CSP T39,[2],0.002683
same,CSP T52,[2],0.001095
same,CSP T65,[2],0.001342
same,CSP T114,[2],0.01524
same,CSP V12,[2],0.002049
same,CSP V24,[2],0
same,CSP V47,[2],0.002683
same,CSP V69,[2],0.003715
same,CSP V93,[2],0.006542
same,CSP V95,[2],0.003131
same,CSP V124,[2],0.007759
same,CSP W61,[2],0.009165
same,CSP W108,[2],0.004025
same,CSP Y22,[2],0.001095
same,CSP Y48,[2],0.002864
same,CSP Y94,[2],0.002449
same,CSP Y127,[2],0.004382
